Assay results as given in ChEMBL document CHEMBL1201862, “PubChem BioAssay data set” (2004).
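Exposure lasted 48 hours, with cells grown in 96-well plates and compounds tested at five concentrations. GI50: concentration for 50% inhibition of growth.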 Calls of active or inactive are those of the source. Rule as the data show it: active = GI50 up to about 1.1 µM and inactive = higher.

Assays:
Assay in all cases: DTP human tumour cell line panel, 48 h
[1] = test system: LOX IMVI
[2] = test system: HT-29
[3] = test system: SW-620
[4] = test system: SK-OV-3
[5] = test system: NCI-H226
[6] = test system: EKVX
[7] = test system: K562
[8] = test system: Hs-578T
[9] = test system: SNB-75
[10] = test system: MDA-MB-435
[11] = test system: PC-3
[12] = test system: HCT-15
[13] = test system: DMS-114
[14] = test system: T47D
[15] = test system: MCF7
[16] = test system: SN12C
[17] = test system: OVCAR-8
[18] = test system: OVCAR-5
[19] = test system: XF498
[20] = test system: SK-MEL-2

`CC1=NN(C(=O)c2ccccc2O)C(=O)/C1=C/c1ccc([N+](=O)[O-])cc1` was tested, and the GI50 [1] was 0.267 µM (active), the GI50 [2] was 5.97 µM (inactive) and the GI50 [3] was 0.738 µM (active). The GI50 [4] was 0.0966 µM (active), the GI50 [5] was 0.459 µM (active) and the GI50 [6] was 1.2 µM (inactive). The GI50 [7] was 0.0434 µM (active), the GI50 [8] was 0.348 µM (active) and the GI50 [9] was 0.248 µM (active). For the same compound, the GI50 [10] was 0.106 µM (active), the GI50 [11] was 1.36 µM (inactive) and the GI50 [12] was 0.361 µM. The GI50 [13] was 0.0875 µM (active), the GI50 [14] was 1.89 µM (inactive) and the GI50 [15] was 0.726 µM (active). The GI50 [16] was 0.372 µM (active), the GI50 [17] was 0.203 µM (active) and the GI50 [18] was 3.12 µM (inactive). The GI50 [19] was 0.664 µM (active).

With `CCCCCCCCCCCCCCCC(=O)OCC1OC(OC)C(NC(=O)N(CCCl)N=O)C(O)C1O` (configuration not stated) the GI50 [1] was 2.36 µM (inactive), the GI50 [2] was 14.5 µM (inactive) and the GI50 [3] was 9.48 µM (inactive). The GI50 [4] was 21.8 µM (inactive), the GI50 [5] was 15.5 µM (inactive) and the GI50 [6] was 31.2 µM (inactive). For the same compound, the GI50 [7] was 10.7 µM (inactive), the GI50 [20] was 17.7 µM (inactive) and the GI50 [8] was 23 µM (inactive). For the same compound, the GI50 [9] was 7 µM (inactive), the GI50 [10] was 16.7 µM (inactive) and the GI50 [11] was 15.7 µM (inactive). The GI50 [12] was 13.1 µM, the GI50 [13] was 13.2 µM (inactive) and the GI50 [15] was 45.4 µM (inactive). The GI50 [16] was 13.4 µM (inactive), the GI50 [17] was 15.5 µM (inactive) and the GI50 [18] was 35 µM (inactive). For the same compound, the GI50 [19] was 7.66 µM (inactive).

In the case of `Cc1c(CNc2ccc(C(=O)NC(CC(=O)O)C(=O)O)cc2)ccc2nc(N)nc(N)c12` (configuration not stated), the GI50 [1] is reported as < 0.01 µM (active), the GI50 [2] is reported as < 0.01 µM (active) and the GI50 [3] is reported as < 0.01 µM (active). For the same compound, the GI50 [4] was 0.146 µM (active), the GI50 [5] was > 100 µM (inactive) and the GI50 [6] was > 100 µM (inactive). The GI50 [7] was 0.0101 µM (active), the GI50 [20] was > 100 µM (inactive) and the GI50 [8] was 684 µM (inactive). For the same compound, the GI50 [9] was 32.5 µM (inactive), the GI50 [10] was < 0.01 µM (active) and the GI50 [11] was 13.4 µM (inactive). The GI50 [12] was less than 0.01 µM, the GI50 [13] was < 0.01 µM (active) and the GI50 [14] was > 100 µM (inactive). The GI50 [15] was < 0.01 µM (active), the GI50 [16] was 0.0499 µM (active) and the GI50 [17] was < 0.01 µM (active). For the same compound, the GI50 [19] was 68.1 µM (inactive).

`c1ccc(CNc2ccc3[nH]c4cnccc4c3c2)cc1` was tested, and the GI50 [1] was 17.8 µM (inactive), the GI50 [2] was 17.7 µM (inactive) and the GI50 [3] was 19.9 µM (inactive). The GI50 [4] was 18.8 µM (inactive), the GI50 [5] was 19.1 µM (inactive) and the GI50 [6] was 19 µM (inactive). For the same compound, the GI50 [7] was 14.3 µM (inactive), the GI50 [20] was 17.7 µM (inactive) and the GI50 [9] was 6.89 µM (inactive). The GI50 [12] was 19.4 µM, the GI50 [13] was 14.8 µM (inactive) and the GI50 [16] was 16.9 µM (inactive). The GI50 [17] was 17.5 µM (inactive), the GI50 [18] was 16.8 µM (inactive) and the GI50 [19] was 19.4 µM (inactive).

For `C/C(=C1/N=C(c2cc([N+](=O)[O-])ccc2Cl)N(c2cccc(C)c2)C1=O)c1cc2ccccc2oc1=O`, the GI50 [1] was 16.7 µM (inactive), the GI50 [2] was 58.5 µM (inactive) and the GI50 [3] was 29.4 µM (inactive). The GI50 [4] was > 100 µM (inactive), the GI50 [5] was 43.6 µM (inactive) and the GI50 [6] was > 100 µM (inactive). The GI50 [7] was 33.7 µM (inactive), the GI50 [20] was > 100 µM (inactive) and the GI50 [9] was > 100 µM (inactive). The GI50 [12] was 36.7 µM, the GI50 [13] was 27.1 µM (inactive) and the GI50 [16] was > 100 µM (inactive). The GI50 [17] was > 100 µM (inactive), the GI50 [18] was > 100 µM (inactive) and the GI50 [19] was 21 µM (inactive).

`Cn1c(=O)oc2cc(C3CCC(=O)N3Cc3ccc(Cl)cc3)ccc21` (configuration not stated) was tested, and the GI50 [1] was > 100 µM (inactive), the GI50 [2] was > 100 µM (inactive) and the GI50 [3] was > 100 µM (inactive). For the same compound, the GI50 [4] was 93.3 µM (inactive), the GI50 [5] was > 100 µM (inactive) and the GI50 [6] was > 100 µM (inactive). The GI50 [7] was > 100 µM (inactive), the GI50 [20] was > 100 µM (inactive) and the GI50 [9] was 47.9 µM (inactive). For the same compound, the GI50 [12] was greater than 100 µM, the GI50 [13] was > 100 µM (inactive) and the GI50 [16] was > 100 µM (inactive). The GI50 [17] was > 100 µM (inactive), the GI50 [18] was > 100 µM (inactive) and the GI50 [19] was > 100 µM (inactive).

For `COC(=O)c1c(CC(=O)OC(C)C)cc2n(c1=O)Cc1c-2nc2ccccc2c1OC`, the GI50 [1] was > 100 µM (inactive), the GI50 [2] was > 100 µM (inactive) and the GI50 [3] was > 100 µM (inactive). For the same compound, the GI50 [4] was > 100 µM (inactive), the GI50 [5] was 99.1 µM (inactive) and the GI50 [6] was > 100 µM (inactive). For the same compound, the GI50 [7] was > 100 µM (inactive), the GI50 [20] was > 100 µM (inactive) and the GI50 [9] was 27 µM (inactive). For the same compound, the GI50 [12] was greater than 100 µM, the GI50 [13] was > 100 µM (inactive) and the GI50 [16] was > 100 µM (inactive). For the same compound, the GI50 [17] was > 100 µM (inactive), the GI50 [18] was > 100 µM (inactive) and the GI50 [19] was > 100 µM (inactive).

In the case of `Cc1cccc(NC(=O)Cc2nc3ccccc3s2)c1C`, the GI50 [1] is reported as > 100 µM (inactive), the GI50 [2] is reported as > 100 µM (inactive) and the GI50 [3] is reported as > 100 µM (inactive). For the same compound, the GI50 [4] was > 100 µM (inactive), the GI50 [5] was > 100 µM (inactive) and the GI50 [6] was > 100 µM (inactive). The GI50 [7] was > 100 µM (inactive), the GI50 [20] was > 100 µM (inactive) and the GI50 [9] was > 100 µM (inactive). For the same compound, the GI50 [12] was greater than 100 µM, the GI50 [13] was > 100 µM (inactive) and the GI50 [16] was > 100 µM (inactive). For the same compound, the GI50 [17] was > 100 µM (inactive), the GI50 [18] was > 100 µM (inactive) and the GI50 [19] was > 100 µM (inactive).

`CCCCCCCCCCCC1CC(=O)NCCCN(C)CCCCN(C)CCCN1C` (configuration not stated) [BUDMUNCHIAMINE A] was tested, and the GI50 [1] was 1.48 µM (inactive), the GI50 [2] was 1.56 µM (inactive) and the GI50 [3] was 1.06 µM (active). For the same compound, the GI50 [4] was 1.8 µM (inactive), the GI50 [5] was 1.93 µM (inactive) and the GI50 [6] was 1.78 µM (inactive). For the same compound, the GI50 [7] was 0.261 µM (active), the GI50 [20] was 1.75 µM (inactive) and the GI50 [9] was 1.59 µM (inactive). The GI50 [12] was 1.63 µM, the GI50 [13] was 1.78 µM (inactive) and the GI50 [16] was 1.74 µM (inactive). The GI50 [17] was 1.89 µM (inactive), the GI50 [18] was 1.85 µM (inactive) and the GI50 [19] was 1.65 µM (inactive).

With `O=C1c2c(n(Cc3ccccc3)c(=O)n2Cc2ccccc2)C(=O)N1Cc1ccccc1` the GI50 [1] was 32.4 µM (inactive), the GI50 [2] was 82.2 µM (inactive) and the GI50 [3] was 47.9 µM (inactive). For the same compound, the GI50 [4] was > 100 µM (inactive), the GI50 [5] was 92.7 µM (inactive) and the GI50 [6] was 66.8 µM (inactive). The GI50 [7] was 58.1 µM (inactive), the GI50 [20] was 46.3 µM (inactive) and the GI50 [9] was 64.7 µM (inactive). The GI50 [12] was 47.8 µM, the GI50 [13] was 34.6 µM (inactive) and the GI50 [16] was 65.5 µM (inactive). The GI50 [17] was > 100 µM (inactive), the GI50 [18] was > 100 µM (inactive) and the GI50 [19] was 16.4 µM (inactive).

`CCOC(=O)NC(=O)c1cn(CCN2CCN(c3ncnc4[nH]cnc34)CC2)c(=O)[nH]c1=O` was tested, and the GI50 [1] was > 100 µM (inactive), the GI50 [2] was > 100 µM (inactive) and the GI50 [3] was > 100 µM (inactive). For the same compound, the GI50 [4] was > 100 µM (inactive), the GI50 [5] was > 100 µM (inactive) and the GI50 [6] was > 100 µM (inactive). For the same compound, the GI50 [7] was > 100 µM (inactive), the GI50 [20] was > 100 µM (inactive) and the GI50 [9] was > 100 µM (inactive). The GI50 [12] was greater than 100 µM, the GI50 [13] was > 100 µM (inactive) and the GI50 [16] was > 100 µM (inactive). For the same compound, the GI50 [17] was > 100 µM (inactive), the GI50 [18] was > 100 µM (inactive) and the GI50 [19] was > 100 µM (inactive).

`C/C(=N\NC(=N)N)C(CN1CCCCC1)C(c1ccccc1)c1c(O)c2ccccc2oc1=O` (configuration not stated) was tested, and the GI50 [1] was > 100 µM (inactive), the GI50 [2] was > 100 µM (inactive) and the GI50 [3] was > 100 µM (inactive). For the same compound, the GI50 [4] was > 100 µM (inactive), the GI50 [5] was > 100 µM (inactive) and the GI50 [6] was > 100 µM (inactive). For the same compound, the GI50 [7] was > 100 µM (inactive), the GI50 [20] was > 100 µM (inactive) and the GI50 [9] was > 100 µM (inactive). For the same compound, the GI50 [12] was greater than 100 µM, the GI50 [13] was > 100 µM (inactive) and the GI50 [16] was > 100 µM (inactive). For the same compound, the GI50 [17] was > 100 µM (inactive), the GI50 [18] was > 100 µM (inactive) and the GI50 [19] was > 100 µM (inactive).

With `CCO/C(CCn1[nH]c(=O)c(Cl)c(Cl)c1=O)=N\NC(=O)C(=O)NN` the GI50 [1] was > 100 µM (inactive), the GI50 [2] was > 100 µM (inactive) and the GI50 [3] was > 100 µM (inactive). The GI50 [4] was > 100 µM (inactive), the GI50 [5] was > 100 µM (inactive) and the GI50 [6] was > 100 µM (inactive). The GI50 [7] was > 100 µM (inactive), the GI50 [20] was > 100 µM (inactive) and the GI50 [9] was > 100 µM (inactive). The GI50 [12] was greater than 100 µM, the GI50 [13] was > 100 µM (inactive) and the GI50 [16] was > 100 µM (inactive). The GI50 [17] was > 100 µM (inactive), the GI50 [18] was > 100 µM (inactive) and the GI50 [19] was > 100 µM (inactive).
